{"source": "patent US20110152169A1", "about": "“SPARC ANTI-INFLAMMATORY ACTIVITY AND USES THEREOF” (priority 2008, published 2011)", "molecules": {"B1": {"name": "Secreted protein acidic and rich in cysteine (protein, listed as Homo sapiens)", "chain": "APQQEALPDETEVVEETVAEVTEVSVGANPVQVEVGEFDDGAEETEEEVVAENPCQNHHCKHGKVCELDENNTPMCVCQDPTSCPAPIGEFEKVCSNDNKTFDSSCHFFATKCTLEGTKKGHKLHLDYIGPCKYIPPCLDSELTEFPLRMRDWLKNVLVTLYERDEDNNLLTEKQKLRVKKIHENEKRLEAGDHPVELLARDFEKNYNMYIFPVHWQFGQLDQHPIDGYLSHTELAPLRAPLIPMEHCTTRFFETCDLDNDKYIALDEWAGCFGIKQKDIDKDLVI", "notes": "matrix-associated protein added to cultures at 10 or 20 μg/ml"}}, "type_in_all_cases": "cell-based, human", "key": {"MCP-1": {"system": "MCP-1", "assay": "MCP-1 protein secreted in conditioned medium, ELISA", "settings": "50 μM LPA", "procedure": "Ovarian cancer cell lines were transduced for 24 hours with adenovirus expressing GFP (Ad-GFP) or adenovirus expressing GFP and SPARC (Ad-GFP-SPARC) in complete growth medium at a multiplicity of infection of 15 to 25 as described previously (Said et al., Am J Pathol, 170: 1054-63 (2007)).\nConfluent monolayers (−106 cells, serum starved overnight) of wild type (WT) human ovarian cancer cell lines SKOV3 or OVCAR3, were stimulated with 50 μM lysophosphatidic acid (LPA) for 24 hours in the presence and absence of SPARC (10 μg/ml). Similarly, adenovirus-transduced SKOV3 and OVCAR3 were stimulated with 50 [M LPA for 24 to 48 hours. Alternatively, adenovirus-transduced SKOV3 and OVCAR3 were seeded onto confluent monolayers or cocultured with Meso301 for 24 to 48 hours. MCP-1 protein secreted in the conditioned medium (CM) of SKOV3 and OVCAR3 was determined by ELISA using a commercially available kit (RayBioTech, Inc., Norcross, Ga.). Controls included cells that were not stimulated (NS) with LPA."}, "MMP-2 and MMP-9": {"system": "MMP-2 and MMP-9", "assay": "Gelatin zymography of conditioned media", "procedure": "Subconfluent monolayers of ovarian cancer cells, transduced or not with Ad-GFP and Ad-GFP-SPARC, were grown in six-well plates alone or in coculture with mesothelial cell monolayers and serum-starved in SFM overnight. U937 macrophages (2×10^6 cells/ml SFM) were cultured in 0.22-μm transwell chambers (Corning, Costar) alone, in cocultures without direct cell-cell contact with ovarian cancer cells, or in triple cultures with ovarian cancer cells and mesothelial cells for an additional 24 hours. LPA (50 μM) or exogenous SPARC (20 μg/ml) (SOURCE?) was included in some experiments. Cell culture conditioned media (CM) were collected, cleared by centrifugation, and concentrated five-fold using Centricon centrifugal filters (Millipore, Bedford, Mass.). […] CM equivalent to 200 μg of ovarian cancer cells, and/or U937 cells was analyzed by gelatin zymography as described previously (Said et al., Am J Pathol, 167: 1739-52 (2005))."}, "uPA": {"system": "uPA", "assay": "uPA activity in conditioned medium, colorimetric assay", "settings": "for inhibition of LPA-induced uPA activity: 24 hours", "procedure": "uPA activity in CM of confluent monolayers (˜10^6 cells) of serum-starved SKOV3 and OVCAR3 was measured in WT cells stimulated for 24 hours with LPA (50 μM) in the presence and absence of SPARC (10 μg/ml). uPA activity in adenovirus-transduced SKOV3 and OVCAR3 stimulated or not with LPA, or cocultured with Meso301 monolayers, U937 macrophages (added in 0.22-μm transwell inserts), or in triple-culture systems was also measured. uPA activity in CM was measured using a commercially available colorimetric assay kit (Chemicon) according to the manufacturer's instructions. […] The results are mean±SEM of a representative of three independent experiments, each performed in duplicate. *P<0.05, compared to nonstimulated WT or Ad-GFP cells. **P<0.05, compared to matched WT or Ad-GFP condition. #P<0.05, compared to coculture of ovarian cancer cells with either Meso301 or U937 in two-cell culture systems."}, "PGE2": {"system": "PGE2", "assay": "PGE2 level in conditioned medium, enzyme immunoassay", "procedure": "LPA (50 μM) or exogenous SPARC (20 μg/ml) (SOURCE?) was included in some experiments.\nSKOV3 and OVCAR3 cells were treated as described in Example 6, and PGE2 level was determined in the CM using a commercially available enzyme immunoassay kit (Cayman Inc.) according to the manufacturer's instructions."}, "8-isoprostane": {"system": "8-isoprostane", "assay": "8-isoprostane level in conditioned medium, enzyme immunoassay", "procedure": "SKOV3 and OVCAR3 were treated as described in Example 6, and the level of 8-isoprostane was determined in the CM using a commercially available enzyme immunoassay kit (Cayman Inc.) according to the manufacturer's instructions."}, "OVCAR3 [1]": {"system": "OVCAR3", "assay": "Proliferation, CellTiter96 (MTS)", "method": "(§1) The proliferation of SKOV3 and OVCAR3 transduced or not with Ad-GFP or Ad-GFP-SPARC as described in Example 1, in response to MCP-1, was assessed using a commercially available CellTiter96 kit (Promega) according to the manufacturer' instructions. The number of proliferating cells was determined colorimetrically by measuring the absorbance at 590 nm (0D590) of the dissolved formazan product after the addition of 3 -(4,5 -dimethylthiazol-2-yl)-5-(3 -carboxymethoxyphenyl)-2-(4-sulfophenyl)-2H-tetrazolium (MTS) for 3 hours.\n(§2) The proliferation and invasiveness of SKOV3 and OVCAR3 cells, transduced or not with Ad-GFP and Ad-GFP-SPARC, in response to PGE2, was determined as described in Example 3. The results shown in FIG. 5 are expressed as the mean±SEM of three independent experiments performed in quadruplicate (proliferation) or triplicate (invasion). *P<0.05, compared to the matched WT cells or Ad-GFP transduced cells. **P<0.05, compared to NS control cells."}, "SKOV3 [2]": {"system": "SKOV3", "assay": "Proliferation, CellTiter96 (MTS)", "method": "as §1, §2"}, "OVCAR3 [3]": {"system": "OVCAR3", "assay": "Matrigel invasion assay", "method": "(§3) The invasiveness of SKOV3 and OVCAR3 transduced or not with Ad-GFP or Ad-GFP-SPARC as described in Example 1, in response to MCP-1, was assessed as previously described (Said et al., Am J Pathol, 167: 1739-52 (2005)). 1×10^5 cells per […] in the presence and absence of MCP-lwere added to the upper chamber of polycarbonate inserts ([…] pore size, Corning Costar, Corning, N.Y.) coated on ice with Growth factor—reduced Matrigel (BD Biosciences, Bedford, Mass.) diluted 1:3 in SFM. In some experiments, cells were pretreated with MCP-1 antibody (25 µg/ml) or its isotype control (50 μg/ml) for 30 minutes before stimulation. The bottom chambers contained complete growth medium. […] The migrated cells were counted in six fields after staining with hemacolor 3 stain (SOURCE?), using an inverted microscope equipped with a DFC 320 digital camera (Leica Microsystems, Wetzlar, Germany) under 200× magnification.\nas §2"}, "SKOV3 [4]": {"system": "SKOV3", "assay": "Matrigel invasion assay", "method": "as §3, §2"}, "NF-κB promoter": {"system": "NF-κB promoter", "assay": "NF-κB promoter luciferase reporter assay", "settings": "SKOV3 and OVCAR3, concentration-dependent up to 5 nM"}, "IL-6": {"system": "IL-6", "assay": "IL-6 in conditioned medium, ELISA", "settings": "U937", "method": "SKOV3 and OVCAR3 cells, transduced or not with Ad-GFP or Ad-GFP-SPARC, and U937 cells were cultured individually, in cocultures, or in triple cultures with Meso301 cells for twenty four hours, and the conditioned medium was assayed for IL-6 by ELISA as described in Example 1. The results shown in FIG. 3 represent the mean±SEM of one of three independent experiments, each performed in duplicate. *P<0.05, compared to matched WT or Ad-GFP. **P<0.05, compared to double cultures in the absence of mesothelial cells."}, "[5]": {"settings": "either cell line (SKOV3, OVCAR3)"}}, "data": [{"molecule": "lysophosphatidic acid [LPA]", "values": [{"measurement": "increase of MCP-1 production after LPA stimulation", "setting": "MCP-1; SKOV3 and OVCAR3, 48 hours", "value": "nine"}, {"measurement": "levels of active MMP-9 after LPA stimulation", "setting": "MMP-2 and MMP-9; OVCAR3 CM, LPA 50 μM", "value": "significantly increased"}, {"measurement": "levels of pro- and active MMP-9 after LPA stimulation", "setting": "MMP-2 and MMP-9; SKOV3 CM, LPA 50 μM", "value": "significantly increased"}, {"measurement": "MMP-2 and MMP-9 activity after LPA", "setting": "MMP-2 and MMP-9; U937 CM, LPA 50 μM", "value": "significantly increased"}, {"measurement": "LPA-induced increase in uPA activity", "setting": "uPA; WT and Ad-GFP-transduced OVCAR3, LPA 50 μM", "value": 4.5, "unit": "fold"}, {"measurement": "LPA-induced increase in uPA activity", "setting": "uPA; WT and Ad-GFP-transduced SKOV3, LPA 50 μM", "value": 4, "unit": "fold"}, {"measurement": "increase in PGE2 production by LPA stimulation", "setting": "PGE2; SKOV3 and OVCAR", "value": 14, "unit": "fold"}, {"measurement": "increase in 8-isoprostane production by LPA stimulation", "setting": "8-isoprostane; OVCAR", "value": "~2.5", "unit": "fold"}, {"measurement": "increase in 8-isoprostane production by LPA stimulation", "setting": "8-isoprostane; SKOV3", "value": "~2.2", "unit": "fold"}]}, {"molecule": "CCCCC[C@H](O)/C=C/[C@H]1[C@H](O)CC(=O)[C@@H]1C/C=C\\CCCC(=O)O", "note": "[PGE2, prostaglandin E2]", "values": [{"measurement": "PGE2-stimulated proliferation", "setting": "OVCAR3 [1]", "value": "concentration dependent"}, {"measurement": "PGE2-stimulated proliferation", "setting": "SKOV3 [2]", "value": "concentration dependent"}, {"measurement": "proinvasive effect of PGE2", "setting": "OVCAR3 [3]", "value": "concentration dependent"}, {"measurement": "proinvasive effect of PGE2", "setting": "SKOV3 [4]", "value": "concentration dependent"}, {"measurement": "PGE2-induced NF-κB activation", "setting": "NF-κB promoter", "value": "approximately three"}]}, {"molecule": "B1", "values": [{"measurement": "inhibition of LPA-induced MCP-1 production", "setting": "MCP-1; OVCAR3, 24 hours", "value": 59, "unit": "%"}, {"measurement": "inhibition of LPA-induced MCP-1 production", "setting": "MCP-1; OVCAR3, 48 hours", "value": 30, "unit": "%"}, {"measurement": "inhibition of LPA-induced MCP-1 production", "setting": "MCP-1; SKOV3, 24 hours", "value": 54, "unit": "%"}, {"measurement": "inhibition of LPA-induced MCP-1 production", "setting": "MCP-1; SKOV3, 48 hours", "value": 43, "unit": "%"}, {"measurement": "effect on IL-6 levels", "setting": "IL-6", "value": "Neither exogenous SPARC nor overexpression of SPARC in U937 had any effect"}, {"measurement": "LPA-induced activity of MMP-2 and MMP-9", "setting": "MMP-2 and MMP-9; U937 CM, SPARC 20 μg/ml", "value": "markedly decreased"}, {"measurement": "attenuation of constitutive uPA activity in CM", "setting": "uPA; OVCAR3", "value": 29, "unit": "%"}, {"measurement": "inhibition of LPA-induced uPA activity", "setting": "uPA; OVCAR3, LPA 50 μM", "value": 36, "unit": "%"}, {"measurement": "attenuation of constitutive uPA activity in CM", "setting": "uPA; SKOV3", "value": 40, "unit": "%"}, {"measurement": "inhibition of LPA-induced uPA activity", "setting": "uPA; SKOV3, LPA 50 μM", "value": 76, "unit": "%"}, {"measurement": "suppression of LPA-induced PGE2 production", "setting": "PGE2; [5]", "value": 40, "unit": "%"}, {"measurement": "decrease of baseline production of PGE2", "setting": "PGE2; serum-starved SKOV3 and OVCAR3", "value": "up to 30%"}, {"measurement": "suppression of LPA-induced 8-isoprostane production", "setting": "8-isoprostane; [5]", "value": "up to 26%"}, {"measurement": "decrease of basal 8-isoprostane (ROS) production", "setting": "8-isoprostane; serum starved SKOV3 and OVCAR3", "value": 70, "unit": "%"}]}]}
